Drawing on article PMC10387993, “New pyrimidine-N-β-D-glucosides: synthesis, biological evaluation, and molecular docking investigations” (Turkish Journal of Chemistry, 2023), this text covers cytotoxicity and LC50 (concentration causing 50% net cell loss) for five compounds.

Type in all cases: cell-based
Data set [1] in a line: LDH cytotoxic activity assay, HT29. Particulars: human, HT29 cells; for cytotoxicity at 24 h, 25 μg/mL: HT29, 25 μg/mL; for cytotoxicity at 24 h, 50 μg/mL: HT29, 50 μg/mL; for cytotoxicity at 24 h, 75 μg/mL: HT29, 75 μg/mL; for cytotoxicity at 24 h, 100 μg/mL: HT29, 100 μg/mL. The procedure:
(§1) The cell lines were cultured in a cell medium (Dulbecco’s modified eagle’s or RPMI 1640) enriched with 10% (v/v) fetal bovine serum and 2% (v/v) Penicillin-Streptomycin (10,000 U/mL). First, old medium was removed out of the flask when the cells reached approximately 80% confluence. Next, cells were taken from the flasks surface using trypsin-EDTA solution and then subjected to centrifugation. Following, the cell pellet was suspended with fresh media and was inoculated into wells.
(§2) Approximately 5 × 10^3 cells in 100 μL were placed into 96-well plates as triplicates and treated with 25, 50, 75, and 100 μg/mL concentrations of test compounds at 37 °C with 5% CO2 for 24 h. LDH activity was obtained by determining absorbance at 492–630 nm using a microplate reader.

The nature of data set [2]: LDH cytotoxic activity assay, Hep3B. Particulars: human, Hep3B cells. The procedure: as §1, §2
Data set [3] in a line: LDH cytotoxic activity assay, FL. As to conditions: human, FL cells (normal cells). How it is done:
as §1, §2

Data set [4] is described as follows: LDH cytotoxic activity assay, C6. Particulars: rat, C6 glioma cells; for cytotoxicity at 24 h, 25 μg/mL: C6, 25 μg/mL; for cytotoxicity at 24 h, 50 μg/mL: C6, 50 μg/mL; for cytotoxicity at 24 h, 75 μg/mL: C6, 75 μg/mL; for cytotoxicity at 24 h, 100 μg/mL: C6, 100 μg/mL. The procedure:
as §1, §2

Data set [5] can be described thus: LDH cytotoxic activity assay, A549. As to conditions: human, A549 cells; for cytotoxicity at 24 h, 25 μg/mL: A549, 25 μg/mL; for cytotoxicity at 24 h, 50 μg/mL: A549, 50 μg/mL; for cytotoxicity at 24 h, 75 μg/mL: A549, 75 μg/mL; for cytotoxicity at 24 h, 100 μg/mL: A549, 100 μg/mL. How it is done: as §1, §2
The nature of data set [6]: in vitro. Particulars: human, LC50. In short, it runs like this:
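In this MTT proliferation screen, formazan formed over 4 h was read at 560 nm against a 690 nm reference. Each line was tested at least three times, and the IC50 was taken as the concentration inhibiting half of the cells.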

A short description of data set [7]: LDH cytotoxic activity assay, HeLa. Particulars: human, HeLa cells. How it is done: as §1, §2
Data set [8] is described as follows: LDH cytotoxic activity assay, MCF7. Particulars: human, MCF7 cells; for cytotoxicity at 24 h, 25 μg/mL: MCF7, 25 μg/mL; for cytotoxicity at 24 h, 50 μg/mL: MCF7, 50 μg/mL; for cytotoxicity at 24 h, 75 μg/mL: MCF7, 75 μg/mL. The procedure: as §1, §2
Where [9] appears, read: as the column head prints, head prints FL.

Regarding `Cc1cccc(-c2cc(-c3cccnc3)nc(N[C@@H]3O[C@H](CO)[C@@H](O)[C@H](O)[C@H]3O)n2)c1` [Compound 5, N-[4-(3-methylphenyl)-6-pyridin-3-ylpyrimidin-2-yl]-β-D-glucopyranosylamine], the cytotoxicity at 24 h, 25 μg/mL was 24.6% in data set [1]; 14.1% in data set [2]; 16.6% in data set [3] (FL); 26.9% in data set [4]; 24.4% in data set [5]; 19.8% in data set [7]. Besides, in data set [8], the cytotoxicity at 24 h, 25 μg/mL was found to be 8.23%. The cytotoxicity at 24 h, 50 μg/mL worked out at 39.4% in data set [1]; 25.5% in data set [2]; 32.9% in data set [3] (FL); 44.1% in data set [4]; 31.3% in data set [5]; 35.3% in data set [7]. Also, in data set [8], the cytotoxicity at 24 h, 50 μg/mL is 12.2%. The cytotoxicity at 24 h, 75 μg/mL worked out at 75.9% in data set [1]; 42.8% in data set [2]; 62.6% in data set [3] (FL); 62.6% in data set [4]; 51.5% in data set [5]; 40.3% in data set [7]. In data set [8], this compound came in with a cytotoxicity at 24 h, 75 μg/mL of 24.9%. Besides, the cytotoxicity at 24 h, 100 μg/mL was determined as 96.8% in data set [1]; 52.5% in data set [2]; 76.8% in data set [3] (FL); 36.4% in data set [3] (setting [9]); 87.1% in data set [4]; 66.3% in data set [5]. Also, in data set [7], the cytotoxicity at 24 h, 100 μg/mL turned out to be 54.3%. Besides, in data set [6], the LC50 (concentration causing 50% net cell loss) was > 500 µg/mL.
Regarding `Cc1ccc(-c2cc(-c3ccccn3)nc(N[C@@H]3O[C@H](CO)[C@@H](O)[C@H](O)[C@H]3O)n2)cc1` [Compound 7, N-[4-(4-methylphenyl)-6-pyridin-2-ylpyrimidin-2-yl]-β-D-glucopyranosylamine], the cytotoxicity at 24 h, 25 μg/mL worked out at 26% in data set [1]; 9.37% in data set [2]; 18.1% in data set [3] (FL); 22% in data set [4]; 24.3% in data set [5]; 11.9% in data set [7]. Moreover, the cytotoxicity at 24 h, 25 μg/mL in data set [8] was 4.05%. In addition, the cytotoxicity at 24 h, 50 μg/mL came out at 40.7% in data set [1]; 17% in data set [2]; 30.5% in data set [3] (FL); 48.6% in data set [4]; 24.4% in data set [5]; 25.1% in data set [7]. The compound also showed a cytotoxicity at 24 h, 50 μg/mL in data set [8] of 20.1%. For the same compound, the cytotoxicity at 24 h, 75 μg/mL in data set [1] worked out at 75.9%; in data set [2], 34.3%; in data set [3] (FL), 46.5%; in data set [4], 69.5%; in data set [5], 27.4%; in data set [7] it was 38.4%. In data set [8], the cytotoxicity at 24 h, 75 μg/mL stood at 26.6%. The cytotoxicity at 24 h, 100 μg/mL stood at 91.8% in data set [1]; 44.5% in data set [2]; 73.2% in data set [3] (FL); 40.7% in data set [3] (setting [9]); 85.8% in data set [4]; 40.6% in data set [5]. This compound registered a cytotoxicity at 24 h, 100 μg/mL in data set [7] of 50.7%. The LC50 (concentration causing 50% net cell loss) in data set [6] was > 500 µg/mL.
In data set [1], `CC(=O)OC[C@H]1O[C@@H](Nc2nc(-c3ccncc3)cc(-c3cccc(C)c3)n2)[C@H](OC(C)=O)[C@@H](OC(C)=O)[C@@H]1OC(C)=O` [Compound 15, 2,3,4,6-tetra-O-acetyl-N-[4-(3-methylphenyl)-6-pyridin-4-ylpyrimidin-2-yl]-β-D-glucopyranosylamine] displayed a cytotoxicity at 24 h, 25 μg/mL of 23.8%; a cytotoxicity at 24 h, 50 μg/mL of 45%; a cytotoxicity at 24 h, 75 μg/mL of 62.6%; a cytotoxicity at 24 h, 100 μg/mL of 78.6%. In data set [4], this compound had a cytotoxicity at 24 h, 25 μg/mL of 20.4%; a cytotoxicity at 24 h, 50 μg/mL of 55%; a cytotoxicity at 24 h, 75 μg/mL of 77.1%; a cytotoxicity at 24 h, 100 μg/mL of 83.3%. Moreover, the LC50 (concentration causing 50% net cell loss) in data set [6] was > 500 µg/mL. In data set [7], this compound displayed a cytotoxicity at 24 h, 25 μg/mL of 18.4%; a cytotoxicity at 24 h, 50 μg/mL of 31.7%; a cytotoxicity at 24 h, 75 μg/mL of 37.1%; a cytotoxicity at 24 h, 100 μg/mL of 56%.
In data set [1], `CC(=O)OC[C@H]1O[C@@H](Nc2nc(-c3ccc(C)cc3)cc(-c3cccnc3)n2)[C@H](OC(C)=O)[C@@H](OC(C)=O)[C@@H]1OC(C)=O` [Compound 17, 2,3,4,6-tetra-O-acetyl-N-[4-(4-methylphenyl)-6-pyridin-3-ylpyrimidin-2-yl]-β-D-glucopyranosylamine] displayed a cytotoxicity at 24 h, 25 μg/mL of 21.7%; a cytotoxicity at 24 h, 50 μg/mL of 35.8%; a cytotoxicity at 24 h, 75 μg/mL of 51%; a cytotoxicity at 24 h, 100 μg/mL of 75.7%. In data set [4], this compound registered a cytotoxicity at 24 h, 25 μg/mL of 32%; a cytotoxicity at 24 h, 50 μg/mL of 44.6%; a cytotoxicity at 24 h, 75 μg/mL of 67.6%; a cytotoxicity at 24 h, 100 μg/mL of 81.8%. Moreover, the LC50 (concentration causing 50% net cell loss) in data set [6] was > 500 µg/mL. In data set [7], this compound returned a cytotoxicity at 24 h, 25 μg/mL of 16.7%; a cytotoxicity at 24 h, 50 μg/mL of 23.8%; a cytotoxicity at 24 h, 75 μg/mL of 32.4%; a cytotoxicity at 24 h, 100 μg/mL of 48.6%.
Turning to `CC(=O)OC[C@H]1O[C@@H](Nc2nc(-c3ccncc3)cc(-c3ccc(C)cc3)n2)[C@H](OC(C)=O)[C@@H](OC(C)=O)[C@@H]1OC(C)=O` [Compound 18, 2,3,4,6-tetra-O-acetyl-N-[4-(4-methylphenyl)-6-pyridin-4-ylpyrimidin-2-yl]-β-D-glucopyranosylamine], in data set [1], the cytotoxicity at 24 h, 25 μg/mL was 27.9%; the cytotoxicity at 24 h, 50 μg/mL was 45.5%; the cytotoxicity at 24 h, 75 μg/mL turned out to be 58.1%; the cytotoxicity at 24 h, 100 μg/mL amounted to 82.8%. In data set [4], the cytotoxicity at 24 h, 25 μg/mL was determined as 27.2%; the cytotoxicity at 24 h, 50 μg/mL is 44.1%; the cytotoxicity at 24 h, 75 μg/mL was 75.2%; the cytotoxicity at 24 h, 100 μg/mL was found to be 86.5%. Moreover, the LC50 (concentration causing 50% net cell loss) in data set [6] is > 500 µg/mL. Also, in data set [7], the cytotoxicity at 24 h, 25 μg/mL is 14.2%; the cytotoxicity at 24 h, 50 μg/mL worked out at 39%; the cytotoxicity at 24 h, 75 μg/mL came to 46.1%; the cytotoxicity at 24 h, 100 μg/mL was found to be 54.2%.
